Experimental data from publication PMC9510826, “Catalytic promiscuity of O-methyltransferases from Corydalis yanhusuo leading to the structural diversity of benzylisoquinoline alkaloids” (Horticulture Research, 2022).

Target: T1, CyOMT2 (Corydalis yanhusuo, UniProt Z9M545XIG0, L253C)
T1 sequence (Z9M545XIG0 1-349 L253C): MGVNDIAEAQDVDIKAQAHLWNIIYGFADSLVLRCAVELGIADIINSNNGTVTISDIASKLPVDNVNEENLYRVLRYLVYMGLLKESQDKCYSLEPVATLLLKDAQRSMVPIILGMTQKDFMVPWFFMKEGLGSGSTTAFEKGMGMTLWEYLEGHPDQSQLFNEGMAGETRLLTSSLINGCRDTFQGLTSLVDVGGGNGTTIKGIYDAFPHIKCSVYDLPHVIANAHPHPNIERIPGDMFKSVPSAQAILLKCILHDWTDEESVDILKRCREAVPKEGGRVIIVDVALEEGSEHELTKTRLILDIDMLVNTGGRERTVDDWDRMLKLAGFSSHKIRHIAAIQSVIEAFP
Assay: UPLC product quantification, Michaelis-Menten fit
Format: biochemical
Conditions: 200 μM SAM, 30 min
Source text: UPLC product quantification, Michaelis-Menten fit on CyOMT2

| Structure (SMILES) | Km (50 mM phosphate pH 7.0, 40°C) [µM] | Km (50 mM phosphate pH 7.5, 45°C) [µM] |
| --- | --- | --- |
| COc1cc2c(cc1O)CC[n+]1cc3c(OC)c(OC)ccc3cc1-2 [compound 14, jatrorrhizine] | 34.8 ± 3.7 |  |
| Oc1ccc(C[C@@H]2NCCc3cc(O)c(O)cc32)cc1 [compound 1, norcoclaurine] |  | 19.4 ± 3.39 |
| COc1cc2c(cc1O)[C@@H]1Cc3ccc(OC)c(O)c3CN1CC2 [compound 15, scoulerine] | 12.2 ± 1.72 |  |
